Measurements reported in ChEMBL document CHEMBL1148038, “Inhibition of Botrytis cinerea by New Sesquiterpenoid Compounds Obtained from the Rearrangement of Isocaryophyllene” (1994).
The source made the active and inactive calls. No cut-off for these calls is given here.

How the values were obtained:
[1] = tested on: Botrytis cinerea; assay: Antifungal activity against Botrytis cinerea at 100 ppm for 3 days by centerpoint incubation disk assay; type: functional, organism-based
[2] = tested on: Botrytis cinerea; assay: Antifungal activity against Botrytis cinerea at 130 ppm for 5 days by centerpoint incubation disk assay; type: functional; conditions: 120 h, read-out: IZ
[3] = tested on: Botrytis cinerea; assay: Antifungal activity against Botrytis cinerea at 17 ppm for 3 days by centerpoint incubation disk assay; type: functional; conditions: 72 h, read-out: IZ
[4] = tested on: Botrytis cinerea; assay: Antifungal activity against Botrytis cinerea by centerpoint incubation disk assay; type: functional, organism-based

Compound | Activity [1] | zone of inhibition at 130 ppm [2] [mm] | zone of inhibition at 17 ppm [3] [mm] | Activity [4]
CC1(C)C[C@@]2(O)[C@]3(C)CCC[C@@]2(C)[C@H]1CC3 [ACETYLGINSENOL] | Active | 6 | – | –
CC1(C)C[C@@]2(C)CCC[C@]3(C)CC[C@@H]1[C@]32O | Active | – | 20 | –
CC1=CC[C@@H]2[C@H]3[C@@H]1CC[C@@]3(C)CC2(C)C | – | – | – | inactive
